Legend:
human MAGL = molecular target: T1, human MAGL (Homo sapiens, UniProt Q99685); test: MAGL inhibition potency, 4-nitrophenyl acetate (4NPA) hydrolysis, absorbance 405 nm (Example A); format: biochemical; conditions: Method 12: Reaction Biology MAGL enzyme, 15 nM; 4NPA substrate; read-out: MAGL Potency (Detection Method)
T1 construct: recombinant MAGL enzyme (aa 2-303 RBC, internal preparation)
T1 sequence (Q99685 2-303): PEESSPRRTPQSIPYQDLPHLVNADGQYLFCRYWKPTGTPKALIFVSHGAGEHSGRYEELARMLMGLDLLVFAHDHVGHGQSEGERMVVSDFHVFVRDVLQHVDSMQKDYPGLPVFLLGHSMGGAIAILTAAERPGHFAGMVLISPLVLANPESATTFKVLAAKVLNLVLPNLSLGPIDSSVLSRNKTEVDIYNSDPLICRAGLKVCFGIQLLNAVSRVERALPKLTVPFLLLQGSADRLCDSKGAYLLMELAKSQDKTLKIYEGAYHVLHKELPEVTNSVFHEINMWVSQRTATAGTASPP
Description: The potency of certain compounds for inhibiting MAGL were obtained using the following assays.
The monoacylglycerol lipase inhibitor screening assay kit from Cayman Chemical was used to measure the MAGL potency for the compounds in Tables A-1, A-2, A-3.
Cayman's Monoacylglycerol Lipase Inhibitor Screening Assay provides a method for screening human MAGL inhibitors. MAGL hydrolyzes 4-nitrophenylacetate resulting in a yellow product, 4-nitrophenol, with an absorbance of 405-412 nm.
MAGL Inhibition was measured by the following assay. Monoacylglycerol Lipase (MAGL) inhibition was measured using recombinant MAGL enzyme (aa 2-303 RBC, internal preparation) and the substrate 4-Nitrophenyl acetate (4NPA) (Sigma-Aldrich, N8130). Hydrolysis of the substrate in the presence of the enzyme was measured by absorbance at 405 nm. 10 μL of assay buffer (10 mM Tris pH 7.5, 1 mM EDTA, 0.9% DMSO) was added to a black 384-well non-binding plate with clear bottom (Greiner, 781906) for each reaction. Compounds were dispensed using an acoustic liquid handler (Echo, Beckman) at 45 nL (0.1% DMSO). Test compounds and control for MAGL inhibitor JZL-184 (Caymen Chemical, 13158) were tested in 10-concentration IC50 mode with 3-fold serial dilution at a starting concentration of […]. DMSO control wells were included for reference. A 10.8 nM (1.8×) MAGL mix in assay buffer was prepared, with 25 μL added to each reaction well, for a final assay concentration of […]. No enzyme wells received 25 μL of buffer. Plate was incubated at room temperature for 30 minutes. 35 mM solution of 4NPA in methanol was prepared daily A 4.5×4NPA substrate solution was prepared in assay buffer and 10 μL was added to each reaction well, for a final assay concentration of 0.25 mM. Plate was spun for 1 minute at 1000 rpm before measuring absorbance using a CLARIOstar plate reader (BMG Labtech). A kinetic reading at 405 nm was done every minute for 30 minutes. Data was analyzed using the linear slope of the reaction progress curve and the average of the no-enzyme wells (background) was subtracted from the data. The background-subtracted slope data was converted to % activity using the average of wells with enzyme and DMSO vehicle. IC50s were calculated using GraphPad software (Sigmoidal dose response, variable slope equation).
Table 8 provides potency measurements of MAGL inhibition measured using the Potency Assay of Example A above, with the following modifications described in Table C.
The number after each letter for potency measurement value indicates the Method from Table C that was used to obtain that measurement value (e.g. “A(1)” indicates an IC50 measurement of <50 nM obtained from the Method 1 of Example A in Table C).

human recombinant FAAH = molecular target: T2, human recombinant FAAH (Homo sapiens, UniProt O00519); test: FAAH counter-screen, AMC arachidonoyl amide substrate (Example B); format: biochemical; conditions: Method B; 20 uM AAMCA substrate
T2 construct: purchased Cayman Chemical 700302 (enzyme); kit Item No. 10005196
T2 sequence (O00519 1-579): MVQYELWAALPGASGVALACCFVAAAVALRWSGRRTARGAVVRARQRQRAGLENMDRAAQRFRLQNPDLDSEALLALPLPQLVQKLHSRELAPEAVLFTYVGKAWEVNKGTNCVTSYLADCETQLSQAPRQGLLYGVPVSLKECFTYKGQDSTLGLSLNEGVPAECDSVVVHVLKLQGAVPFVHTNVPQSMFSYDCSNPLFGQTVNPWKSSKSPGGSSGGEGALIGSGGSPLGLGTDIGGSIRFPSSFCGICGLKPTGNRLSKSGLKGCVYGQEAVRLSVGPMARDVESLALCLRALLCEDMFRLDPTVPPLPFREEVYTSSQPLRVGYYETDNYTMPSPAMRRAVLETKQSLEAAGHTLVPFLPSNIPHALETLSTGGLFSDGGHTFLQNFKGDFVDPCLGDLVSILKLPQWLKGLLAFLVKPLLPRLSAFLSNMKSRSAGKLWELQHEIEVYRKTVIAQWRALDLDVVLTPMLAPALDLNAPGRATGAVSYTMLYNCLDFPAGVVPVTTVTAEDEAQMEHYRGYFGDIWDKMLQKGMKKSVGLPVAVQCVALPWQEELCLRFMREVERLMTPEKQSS
Method: Comparative compound potency at FAAH can be obtained with the following assay.
MAGL inhibitor compounds were also counter-screened for FAAH inhibition potency using the following assay. Assessment of FAAH inhibition was performed using Fatty Acid Amide Hydrolase Inhibitor Screening Assay Kit (Cayman Item No. 10005196) following manufacture's instruction with some modifications. The kit utilizes human recombinant FAAH and the fluorescent substrate, AMC Arachidonoyl amide (AAMCA). […] 300 nL or 30 nL of test compounds were delivered into a 384-well black plate (Corning, 3573) using a Labcyte Echo, followed by addition of 15 μL of FAAH enzyme (Cayman, 700302) in assay buffer. After a 5-minute pre-incubation at room temperature, 10 μL of AAMCA was added in assay buffer to start the reaction. Final concentration of FAAH enzyme is not specified and AAMCA substrate was used at the 20 uM. After these dilutions, the final concentration of the test compounds ranged from 100 μM to 5.08 nM or 10 μM down to 0.508 nM. The reaction was allowed to progress for 60 minutes, while the plate was read on an Envision plate reader at an Ex/Em of 350/460 nm with readings every minute. The data was analyzed in Microsoft Excel, using the slope between 30 and 59 minutes. The average of the no-enzyme wells (background) was subtracted from the data. The background-subtracted slope data was converted to % activity using the average of wells with enzyme and DMSO vehicle. IC50 values were calculated using GraphPad software (Sigmoidal dose response, variable slope equation).
Compounds listed in Table D were tested in the FAAH Counter-screen of Example B.

Flag-tagged MAGL enzyme = molecular target: T3, Flag-tagged MAGL enzyme (Homo sapiens, UniProt Q99685); test: Reversible MAGL inhibition, washout of immobilized Flag-tagged MAGL enzyme (Example C); format: biochemical; conditions: for activity at 1 µM: 0.5 h, relative to control (no inhibitor before washout), immediately following a 30 minute washout, pre-washout 1 μM, read-out: % MAGL activity returning after washout; for degree to which MAGL enzymatic activity returned following washout: pre-washout compound concentration 1 μM
T3 sequence (Q99685 1-303): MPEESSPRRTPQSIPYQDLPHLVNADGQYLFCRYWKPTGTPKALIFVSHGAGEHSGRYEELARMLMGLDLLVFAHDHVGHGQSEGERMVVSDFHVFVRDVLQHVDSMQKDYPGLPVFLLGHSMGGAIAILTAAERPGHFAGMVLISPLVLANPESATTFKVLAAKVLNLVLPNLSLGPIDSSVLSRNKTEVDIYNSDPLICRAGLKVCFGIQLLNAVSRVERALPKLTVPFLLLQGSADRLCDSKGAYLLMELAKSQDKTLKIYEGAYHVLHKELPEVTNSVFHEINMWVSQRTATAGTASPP
Method: The reversible mechanism of MAGL inhibition of a test compound of Formula (I) can be determined. Flag-tagged MAGL enzyme will be immobilized on anti-Flag beads Immobilized enzyme will be incubated+/−inhibitor at a dose that produces complete inhibition. Colorimetric substrate (4-NPA) will be added and the reaction monitored on a plate reader for 30 minutes to verify complete inhibition. Immobilized enzyme will then be washed thoroughly to remove the inhibitor, and fresh substrate will be added. The reaction will be monitored for an additional 30 minutes; returning enzymatic activity will indicate reversibility of inhibition.
For some test compounds, % activity returning after washout may be less than 100% if complete compound unbinding takes longer than 30 minutes.

[1] = system: brain and peripheral 2-AG; brain AA; conditions: irreversible MAGL inhibition; cited from earlier work

O=C(c1cc(O)ccc1F)N1CC2(CC(n3nc(C(F)(F)F)cc3-c3ccccn3)C2)C1 [Compound 5, (2-fluoro-5-hydroxyphenyl){6-[5-(2-pyridyl)-3-(trifluoromethyl)-1-pyrazolyl]-2-aza-2-spiro[3.3]heptyl}methanone]
IC50 (human MAGL): < 0.05 µM
IC50 (human recombinant FAAH): > 10 µM
activity at 1 µM (Flag-tagged MAGL enzyme): > 50%
degree to which MAGL enzymatic activity returned following washout (Flag-tagged MAGL enzyme): 123%

O=C(c1cc(O)ccc1F)N1CC2(CC(n3nc(-c4ccc(=O)[nH]c4)cc3C(F)(F)F)C2)C1 [Compound 10, 5-(1-{2-(2-fluoro-5-hydroxybenzoyl)-2-aza-6-spiro[3.3]heptyl}-5-(trifluoromethyl)-3-pyrazolyl)-2(1H)-pyridinone]
IC50 (human MAGL): < 0.05 µM
IC50 (human recombinant FAAH): > 10 µM
activity at 1 µM (Flag-tagged MAGL enzyme): > 50%
degree to which MAGL enzymatic activity returned following washout (Flag-tagged MAGL enzyme): 122%

O=C(c1cc(O)ccc1F)N1CC2(CC(n3nc(-c4ccc[nH]c4=O)cc3C(F)(F)F)C2)C1 [Compound 12, 3-(1-{2-(2-fluoro-5-hydroxybenzoyl)-2-aza-6-spiro[3.3]heptyl}-5-(trifluoromethyl)-3-pyrazolyl)-2(1H)-pyridinone]
IC50 (human MAGL): < 0.05 µM
IC50 (human recombinant FAAH): > 10 µM
activity at 1 µM (Flag-tagged MAGL enzyme): > 50%
degree to which MAGL enzymatic activity returned following washout (Flag-tagged MAGL enzyme): 135%

COc1ncccc1-c1cc(C(F)(F)F)n(C2CC3(C2)CN(C(=O)c2cc(O)ccc2F)C3)n1 [Compound 15, (2-fluoro-5-hydroxyphenyl)(6-(3-(2-methoxypyridin-3-yl)-5-(trifluoromethyl)-1H1-pyrazol-1-yl)-2-azaspiro[3.3]heptan-2-yl)methanone]
IC50 (human MAGL): < 0.05 µM
IC50 (human recombinant FAAH): > 10 µM
activity at 1 µM (Flag-tagged MAGL enzyme): > 50%
degree to which MAGL enzymatic activity returned following washout (Flag-tagged MAGL enzyme): 99%

COc1ccc(-c2cc(C(F)(F)F)n(C3CC4(C3)CN(C(=O)c3cc(O)ccc3F)C4)n2)cn1 [Compound 17, (2-fluoro-5-hydroxyphenyl) (6-(3-(6-methoxypyridin-3-yl)-5-(trifluoromethyl)-1H-pyrazol-1-yl)-2-azaspiro [3.3]heptan-2-yl) methanone]
IC50 (human MAGL): < 0.05 µM
IC50 (human recombinant FAAH): > 10 µM
activity at 1 µM (Flag-tagged MAGL enzyme): > 50%
degree to which MAGL enzymatic activity returned following washout (Flag-tagged MAGL enzyme): 89%

O=C(Oc1ccc([N+](=O)[O-])cc1)N1CCC(C(O)(c2ccc3c(c2)OCO3)c2ccc3c(c2)OCO3)CC1 [JZL-184, reference compound]
activity at 1 µM (Flag-tagged MAGL enzyme): < 1%
degree to which MAGL enzymatic activity returned following washout (Flag-tagged MAGL enzyme): complete lack of return of MAGL enzymatic activity
brain AA [1]: reduce
brain and peripheral 2-AG [1]: increase

From US20260345568A1, “INHIBITING MONOACYLGLYCEROL LIPASE (MAGL)” (PSY THERAPEUTICS, INC., priority 2023, published 2026)
